In PubChem BioAssay AID1919006 (Molecular Pharmacology Branch, DTP, NCI, 2023):

Test system: 885512-296-R-J2-PDC complex spheroid growth, % test/control
Assay: Anticancer human tumor 885512-296-R-J2-PDC patient-derived breast carcinoma cell line growth inhibition [AhR]
Settings: for IC50: curve of first compound; for viability, T/C: stronger effect = lower value
How it was run: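 Agents were dosed in half-log steps down from roughly clinical Cmax, or from 10 microM where Cmax was unknown, alone and with AhR antagonists. Read-out: percent test/control growth of tumor spheroids containing HUVEC and MSC stromal cells.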

[1] = second compound 0.1 µM, first compound 0.00949 µM
[2] = second compound 0.1 µM, first compound 0.03 µM
[3] = second compound 0.1 µM, first compound 0.0949 µM
[4] = second compound 0.1 µM, first compound 0.3 µM
[5] = second compound 0.316 µM, first compound 0.00949 µM
[6] = second compound 0.316 µM, first compound 0.03 µM
[7] = second compound 0.316 µM, first compound 0.0949 µM
[8] = second compound 0.316 µM, first compound 0.3 µM
[9] = second compound 1 µM, first compound 0.00949 µM
[10] = second compound 1 µM, first compound 0.03 µM
[11] = second compound 1 µM, first compound 0.0949 µM
[12] = second compound 1 µM, first compound 0.3 µM
[13] = second compound 3.16 µM, first compound 0.00949 µM
[14] = second compound 3.16 µM, first compound 0.03 µM
[15] = second compound 3.16 µM, first compound 0.0949 µM
[16] = second compound 3.16 µM, first compound 0.3 µM
[17] = second compound 10 µM, first compound 0.00949 µM
[18] = second compound 10 µM, first compound 0.03 µM
[19] = second compound 10 µM, first compound 0.0949 µM
[20] = second compound 10 µM, first compound 0.3 µM
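Further: spheroids exposed to compounds for seven days.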

Nc1ncn(C2CC(O)C(CO)S2)c(=O)n1 (stereo not given) + Cc1cncc(-c2nc(NCCc3c[nH]c4ccccc34)c3ncn(C(C)C)c3n2)c1
IC50 (second compound 0.1 µM): 0.0966 µM
IC50 (second compound 0.316 µM): 0.0939 µM
IC50 (second compound 1 µM): 0.0448 µM
IC50 (second compound 3.16 µM): 0.00346 µM
IC50 (second compound 10 µM): < 0.000949 µM
viability, T/C (second compound 0.1 µM, first compound 0.000949 µM): 99.5%
viability, T/C (second compound 0.1 µM, first compound 0.003 µM): 110%
viability, T/C [1]: 107%
viability, T/C [2]: 79%
viability, T/C [3]: 53%
viability, T/C [4]: 40.9%
viability, T/C (second compound 0.316 µM, first compound 0.000949 µM): 98%
viability, T/C (second compound 0.316 µM, first compound 0.003 µM): 94.1%
viability, T/C [5]: 99.1%
viability, T/C [6]: 75.9%
viability, T/C [7]: 51.3%
viability, T/C [8]: 38.8%
viability, T/C (second compound 1 µM, first compound 0.000949 µM): 67.6%
viability, T/C (second compound 1 µM, first compound 0.003 µM): 67.8%
viability, T/C [9]: 70.7%
viability, T/C [10]: 55.7%
viability, T/C [11]: 38.8%
viability, T/C [12]: 33.1%
viability, T/C (second compound 3.16 µM, first compound 0.000949 µM): 47.4%
viability, T/C (second compound 3.16 µM, first compound 0.003 µM): 54.8%
viability, T/C [13]: 47.8%
viability, T/C [14]: 42.5%
viability, T/C [15]: 36%
viability, T/C [16]: 27.5%
viability, T/C (second compound 10 µM, first compound 0.000949 µM): 21%
viability, T/C (second compound 10 µM, first compound 0.003 µM): 23.5%
viability, T/C [17]: 18.9%
viability, T/C [18]: 15%
viability, T/C [19]: 17.4%
viability, T/C [20]: 13.9%

O=C(C=Cn1cnc(-c2cc(C(F)(F)F)cc(C(F)(F)F)c2)n1)NNc1cnccn1 + Cc1ccccc1N=Nc1ccc(NC(=O)c2ccnn2C)c(C)c1
IC50 (second compound 0.1 µM): 0.0729 µM
IC50 (second compound 0.316 µM): 0.071 µM
IC50 (second compound 1 µM): 0.0681 µM
IC50 (second compound 3.16 µM): 0.0648 µM
IC50 (second compound 10 µM): 0.0404 µM
viability, T/C [1]: 111%
viability, T/C [2]: 113%
viability, T/C [3]: 31.6%
viability, T/C [4]: 4.42%
viability, T/C (second compound 0.1 µM, first compound 0.949 µM): 2.04%
viability, T/C (second compound 0.1 µM, first compound 3 µM): 0.74%
viability, T/C [5]: 114%
viability, T/C [6]: 121%
viability, T/C [7]: 27.2%
viability, T/C [8]: 4.07%
viability, T/C (second compound 0.316 µM, first compound 0.949 µM): 1.17%
viability, T/C (second compound 0.316 µM, first compound 3 µM): 0.77%
viability, T/C [9]: 118%
viability, T/C [10]: 115%
viability, T/C [11]: 23.7%
viability, T/C [12]: 4.28%
viability, T/C (second compound 1 µM, first compound 0.949 µM): 1.23%
viability, T/C (second compound 1 µM, first compound 3 µM): 1.12%
viability, T/C [13]: 99.1%
viability, T/C [14]: 89.9%
viability, T/C [15]: 30.1%
viability, T/C [16]: 4.05%
viability, T/C (second compound 3.16 µM, first compound 0.949 µM): 1.22%
viability, T/C (second compound 3.16 µM, first compound 3 µM): 0.73%
viability, T/C [17]: 54.6%
viability, T/C [18]: 64.4%
viability, T/C [19]: 22.7%
viability, T/C [20]: 3.99%
viability, T/C (second compound 10 µM, first compound 0.949 µM): 1.13%
viability, T/C (second compound 10 µM, first compound 3 µM): 0.63%

Cn1ncnc1C1c2n[nH]c(=O)c3cc(F)cc(c23)NC1c1ccc(F)cc1 (stereo not given) + CC(CO)NC(=O)c1cc(-c2ccc(Cl)cc2)nn(-c2cnn(C)c2)c1=O
IC50 (second compound 0.1 µM): > 0.1 µM
IC50 (second compound 0.316 µM): > 0.1 µM
IC50 (second compound 1 µM): > 0.1 µM
IC50 (second compound 3.16 µM): > 0.1 µM
IC50 (second compound 10 µM): > 0.1 µM
viability, T/C (second compound 0.1 µM, first compound 0.000316 µM): 107%
viability, T/C (second compound 0.1 µM, first compound 0.001 µM): 108%
viability, T/C (second compound 0.1 µM, first compound 0.00316 µM): 103%
viability, T/C (second compound 0.1 µM, first compound 0.01 µM): 96.6%
viability, T/C (second compound 0.1 µM, first compound 0.0316 µM): 87.1%
viability, T/C (second compound 0.1 µM, first compound 0.1 µM): 69.1%
viability, T/C (second compound 0.316 µM, first compound 0.000316 µM): 102%
viability, T/C (second compound 0.316 µM, first compound 0.001 µM): 96.9%
viability, T/C (second compound 0.316 µM, first compound 0.00316 µM): 98.5%
viability, T/C (second compound 0.316 µM, first compound 0.01 µM): 107%
viability, T/C (second compound 0.316 µM, first compound 0.0316 µM): 73%
viability, T/C (second compound 0.316 µM, first compound 0.1 µM): 63.9%
viability, T/C (second compound 1 µM, first compound 0.000316 µM): 104%
viability, T/C (second compound 1 µM, first compound 0.001 µM): 96.4%
viability, T/C (second compound 1 µM, first compound 0.00316 µM): 101%
viability, T/C (second compound 1 µM, first compound 0.01 µM): 89.3%
viability, T/C (second compound 1 µM, first compound 0.0316 µM): 79.1%
viability, T/C (second compound 1 µM, first compound 0.1 µM): 64.7%
viability, T/C (second compound 3.16 µM, first compound 0.000316 µM): 90.1%
viability, T/C (second compound 3.16 µM, first compound 0.001 µM): 101%
viability, T/C (second compound 3.16 µM, first compound 0.00316 µM): 107%
viability, T/C (second compound 3.16 µM, first compound 0.01 µM): 82.9%
viability, T/C (second compound 3.16 µM, first compound 0.0316 µM): 84.9%
viability, T/C (second compound 3.16 µM, first compound 0.1 µM): 64.6%
viability, T/C (second compound 10 µM, first compound 0.000316 µM): 96.7%
viability, T/C (second compound 10 µM, first compound 0.001 µM): 97.9%
viability, T/C (second compound 10 µM, first compound 0.00316 µM): 88.9%
viability, T/C (second compound 10 µM, first compound 0.01 µM): 79.2%
viability, T/C (second compound 10 µM, first compound 0.0316 µM): 67.1%
viability, T/C (second compound 10 µM, first compound 0.1 µM): 51.1%
